Measured values taken from patent US20090326037A1 (priority 2005, published 2009).
Several values for one entry are separate records, joined by “and”; a condition that tells them apart may be missing. Equal values may be shown once. Read-outs that look alike come from different tables or passages of the source.

What was measured:
[1] = test system: avian influenza virus (H5N1); type: in vivo, white mice; details: Oseltamivir 2.5 mg/kg alone (Arbidol 0 mg/kg), orally
[2] = test system: influenza A/Singapore/1/57 virus; experiment: microbe, parasite or virus in culture; type: cell-based
[3] = Toxicity (lethal effect, LD50) in mice; type: in vivo
Experimental: (§1) Determination of toxicity of 1-methyl-2-phenylthiomethyl-3-carbethoxy-5-oxy-6-bromindol sulfon as compared with arbidol.
(§2) The administration of the preparations was carried out endogastrically, the period of observation of the animals was 14 days.

[4] = test system: influenza virus A/PR/8/34; type: cell-based; details: influenza virus A/PR/8/34, MDCK cells; concentration not given
influenza virus H3N2 = type: in vivo, mice
[5] = Toxicity (lethal effect, LD50) in rats; type: in vivo
Experimental: as §1, §2

[6] = Dose 100 mg/kg, endogastrically, observation 14 days
[7] = Dose 250 mg/kg, endogastrically, observation 14 days
[8] = Dose 500 mg/kg, endogastrically, observation 14 days
[9] = Dose 1000 mg/kg, endogastrically, observation 14 days
[10] = Dose 3000 mg/kg, endogastrically, observation 14 days
[11] = Dose 5000 mg/kg, endogastrically, observation 14 days
[12] = Dose 7500 mg/kg, endogastrically, observation 14 days

Molecule: CCOC(=O)C1=C[C@@H](OC(CC)CC)[C@H](NC(C)=O)[C@@H](N)C1 [Oseltamivir]
- Surviving mice, % [1]: 60%
- Percent of inhibition of OD 490 ([2]; Oseltamivir 0.4 μg alone (A or C 0 μg/ml), two values: A series, C series, added 2 hours after infection): 36% and 18%
- Percent of inhibition of OD 490 ([2]; Oseltamivir 4.1 μg alone (A or C 0 μg/ml), two values: A series, C series, added 2 hours after infection): 37% and 20%
- Percent of inhibition of OD 490 ([2]; Oseltamivir 12.3 μg alone (A or C 0 μg/ml), two values: A series, C series, added 2 hours after infection): 48% and 34%
- Percent of inhibition of OD 490 ([2]; Oseltamivir 41 μg alone (A or C 0 μg/ml), two values: A series, C series, added 2 hours after infection): 52% and 36%
- suppression of reproduction ([2]; ten times greater amount (than 3.3 mg) of zanamivir or oseltamivir without the addition of arbidol): 50%

Molecule: CCOC(=O)c1c(CS(=O)(=O)c2ccccc2)n(C)c2cc(Br)c(O)cc12 [Sulfon, 1-methyl-2-phenylthiomethyl-3-carbethoxy-5-oxy-6-bromindol sulfon]
- Lethal effect upon administration to mice [3, 6]: 0/6
- Lethal effect upon administration to mice [3, 7]: 0/6
- Lethal effect upon administration to mice [3, 8]: 0/6
- Lethal effect upon administration to mice [3, 9]: 0/6
- Lethal effect upon administration to mice [3, 10]: 2/6
- Lethal effect upon administration to mice [3, 11]: 4/6
- Lethal effect upon administration to mice [3, 12]: 6/6
- toxicity as compared with arbidol ([3]; Table 5 (mice and rats), endogastrically): significantly less toxic than arbidol
- LD50 relative to arbidol ([3]; mice, sulfon LD50 versus arbidol LD50): 4 times
- LD50 at 14 days ([3]; mouse, in vivo, oral, mice, endogastrically, observation 14 days): 3600 ± 180 mg/kg
- Percent of suppression of virus reproduction [4]: 75%
- Percent of surviving mice (influenza virus H3N2; Concentration 15): 90%
- Percent of surviving mice (influenza virus H3N2; Concentration 30): 70%
- Percent of surviving mice (influenza virus H3N2; Concentration 100): 40% and 50% and 60%
- antiviral action in vivo as compared with arbidol (influenza virus H3N2; mouse, in vivo): comparable with the action of arbidol
- Lethal effect upon administration to rats [5, 6]: 0/6
- Lethal effect upon administration to rats [5, 7]: 0/6
- Lethal effect upon administration to rats [5, 8]: 0/6
- Lethal effect upon administration to rats [5, 9]: 0/6
- Lethal effect upon administration to rats [5, 10]: 2/6
- Lethal effect upon administration to rats [5, 11]: 4/6
- Lethal effect upon administration to rats [5, 12]: 6/6
- LD50 at 14 days ([5]; rat, in vivo, oral, rats, endogastrically, observation 14 days): 5350 ± 250 mg/kg
- LD50 relative to arbidol ([5]; rats, sulfon LD50 versus arbidol LD50): 3 times

Molecule: 1-methyl-2-(4-methylphenylsulfomethyl-3-carbethoxy-4-dimethylaminomethyl-5-oxy-6-bromindol
- Percent of inhibition of OD 490 ([2]; A or B 0.3 μg/ml + Zanamivir 0.3 μg, added 2 hours after infection): 10%
- Percent of inhibition of OD 490 ([2]; A or B 0.3 μg/ml + Zanamivir 1 μg, added 2 hours after infection): 15%
- Percent of inhibition of OD 490 ([2]; A or B 0.3 μg/ml + Zanamivir 3.3 μg, added 2 hours after infection): 21%
- Percent of inhibition of OD 490 ([2]; A or B 0.3 μg/ml + Zanamivir 10 μg, added 2 hours after infection): 30%
- Percent of inhibition of OD 490 ([2]; A or B 0.3 μg/ml + Zanamivir 33 μg, added 2 hours after infection): 40%
- Percent of inhibition of OD 490 ([2]; A or B 0.3 μg/ml alone (Zanamivir 0), added 2 hours after infection): no
- Percent of inhibition of OD 490 ([2]; A or B 1 μg/ml + Zanamivir 0.3 μg, added 2 hours after infection): 21%
- Percent of inhibition of OD 490 ([2]; A or B 1 μg/ml + Zanamivir 1 μg, added 2 hours after infection): 26%
- Percent of inhibition of OD 490 ([2]; A or B 1 μg/ml + Zanamivir 3.3 μg, added 2 hours after infection): 30%
- Percent of inhibition of OD 490 ([2]; A or B 1 μg/ml + Zanamivir 10 μg, added 2 hours after infection): 85%
- Percent of inhibition of OD 490 ([2]; A or B 1 μg/ml + Zanamivir 33 μg, added 2 hours after infection): 83%
- Percent of inhibition of OD 490 ([2]; A or B 1 μg/ml alone (Zanamivir 0), added 2 hours after infection): no
- Percent of inhibition of OD 490 ([2]; A or B 3 μg/ml + Zanamivir 0.3 μg, added 2 hours after infection): 40%
- Percent of inhibition of OD 490 ([2]; A or B 3 μg/ml + Zanamivir 1 μg, added 2 hours after infection): 45%
- Percent of inhibition of OD 490 ([2]; A or B 3 μg/ml + Zanamivir 3.3 μg, added 2 hours after infection): 80%
- Percent of inhibition of OD 490 ([2]; A or B 3 μg/ml + Zanamivir 10 μg, added 2 hours after infection): 90%
- Percent of inhibition of OD 490 ([2]; A or B 3 μg/ml + Zanamivir 33 μg, added 2 hours after infection): 87%
- Percent of inhibition of OD 490 ([2]; A or B 3 μg/ml alone (Zanamivir 0), added 2 hours after infection): no
- Percent of inhibition of OD 490 ([2]; A or B 5 μg/ml + Zanamivir 0.3 μg, added 2 hours after infection): 52%
- Percent of inhibition of OD 490 ([2]; A or B 5 μg/ml + Zanamivir 1 μg, added 2 hours after infection): 80%
- Percent of inhibition of OD 490 ([2]; A or B 5 μg/ml + Zanamivir 3.3 μg, added 2 hours after infection): 75%
- Percent of inhibition of OD 490 ([2]; A or B 5 μg/ml + Zanamivir 10 μg, added 2 hours after infection): 96%
- Percent of inhibition of OD 490 ([2]; A or B 5 μg/ml + Zanamivir 33 μg, added 2 hours after infection): 95%
- Percent of inhibition of OD 490 ([2]; A or B 5 μg/ml alone (Zanamivir 0), added 2 hours after infection): no
- Percent of inhibition of OD 490 ([2]; A or B 10 μg/ml + Zanamivir 0.3 μg, added 2 hours after infection): 50%
- Percent of inhibition of OD 490 ([2]; A or B 10 μg/ml + Zanamivir 1 μg, added 2 hours after infection): 75%
- Percent of inhibition of OD 490 ([2]; A or B 10 μg/ml + Zanamivir 3.3 μg, added 2 hours after infection): 90%
- Percent of inhibition of OD 490 ([2]; A or B 10 μg/ml + Zanamivir 10 μg, added 2 hours after infection): 100, 100%
- Percent of inhibition of OD 490 ([2]; A or B 10 μg/ml + Zanamivir 33 μg, added 2 hours after infection): 100, 100%
- Percent of inhibition of OD 490 ([2]; A or B 10 μg/ml alone (Zanamivir 0), added 2 hours after infection): 10%

Molecule: CC(N)C12CC3CC(CC(C3)C1)C2 (centres unmarked) [Remantadin]
- Percent of inhibition of OD 490 ([2]; Remantadin 5 μg/ml alone (A or D 0 μg/ml), two values: A series, D series, added 30 min prior to infection): 56% and 41%
- Percent of inhibition of OD 490 ([2]; Remantadin 10 μg/ml alone (A or D 0 μg/ml), two values: A series, D series, added 30 min prior to infection): 59% and 40%
